Source: EP0429304A2, “Pyridone-carboxylic acid derivatives and their use as veterinary medicines” (SHIONOGI SEIYAKU KABUSHIKI KAISHA trading under the name of …, priority 1989, dated 1991)
Counter-ions that a name gives are not always drawn. Like-named read-outs stand apart in the source and are kept apart here.

Tests used:
[1] = system: Mycoplasma gallisepticum (MG) S6; assay: In vitro sensitivity test (liquid dilution method); format: cell-based; conditions: 37°C, 7 days
Description: (§1) Survey of the sensitivity of the compound (I) to various strains of microorganisms was performed by a liquid dilution method […] an agar dilution method, in which the bacteria used were of animal origin and included the following strains (15 strains out of 11 bacteria): Chicken-origin strain: Mycoplasma gallisepticum (MG), Mycoplasma synoviae (MS), Hemophilus paragallinarum (H.pg) and Escherichia coli (E.coli); Pig-origin strain: Mycoplasma hyopneumoniae (Mh), Hemophilus pleuropneumonia (H.pp) and Bordetella bronchiseptica (B.br); Fish-origin strain: Pasteurella piscicida (P.pis) and Streptococcus sp (Str.sp); others: Escherichia coli (E. coli), Salmonella typhimurium (S.typhi) and Staphylococcus aureus (S.au).
(§2) Of these bacteria, the strains belonging to MG, MS and Mh were cultured at 37°C for 7 days by a liquid dilution method, of which the culture medium comprised: 12 % horse-serum added "PPLO" (agar manufactured by Difco) medium for MG; 12 % pig-serum, 0.01 % βNAD (nicotinamide adenine dinucleotide) added Frey medium for MS; 0.5 % lactoalbumin added Hank's solution, 10 % horse-serum, 0.5 % yeast extract (25 %) for Mh, and the agar dilution method was applied to the strains belonging to H.pg, H.pp, S.typhi, E.coli, S.au and B.br. Specifically, the H.pg strain was cultured in a 5 % chicken-serum added chicken bouillon medium and the H.pp strain was cultured in a heart infusion agar added with 10 % sheep defibered blood and 0.05 % βNAD. In case of the H.pg and P.pp strains, observation was made after cultivation at 37°C for 20 hours under 10 % CO₂. Mueller Hinton agar (Difco) was used for the strains belonging to S.typhi, E.coli, S.au and B.br, and observation was made after cultivation at 37°C for 20 to 24 hours. P.pis and Str.sp, both being of fish-origin, were respectively cultured at 25°C for 40 to 48 hours in a 1.5 % NaCl added heart infusion agar and in a sensitive disk medium.

[2] = system: Mycoplasma gallisepticum (MG) T-7-T, TS-resistant strain isolated from the field; assay: In vitro sensitivity test (liquid dilution method); format: cell-based; conditions: 37°C, 7 days
Description: as §1, §2

[3] = system: Mycoplasma synoviae (MS) 1853; assay: In vitro sensitivity test (liquid dilution method); format: cell-based; conditions: 37°C, 7 days
Description: as §1, §2

[4] = system: Mycoplasma synoviae (MS) F10-2as; assay: In vitro sensitivity test (liquid dilution method); format: cell-based; conditions: 37°C, 7 days
Description: as §1, §2

[5] = system: Escherichia coli (E.coli) JC-2; assay: In vitro sensitivity test (agar dilution method); format: cell-based; conditions: 37°C, 20 to 24 hours
Description: as §1, §2

[6] = system: Hemophilus pleuropneumonia (H.pp) M-1; assay: In vitro sensitivity test (agar dilution method); format: cell-based; conditions: 37°C, 20 hours, 10 % CO₂
Description: as §1, §2

[7] = system: Salmonella typhimurium (S.typhi) 13311; assay: In vitro sensitivity test (agar dilution method); format: cell-based; conditions: 37°C, 20 to 24 hours
Description: as §1, §2

[8] = system: Staphylococcus aureus (S.au) 209P; assay: In vitro sensitivity test (agar dilution method); format: cell-based; conditions: 37°C, 20 to 24 hours
Description: as §1, §2

[9] = system: TS-resistant strain of MG; format: in vivo, chicken; conditions: for Infectious index Left air sack + / Infectious index Left air sack ++ / Infectious index Left air sack +++ / Infectious index Left air sack - / Infectious index Right air sack + / Infectious index Right air sack ++ / Infectious index Right air sack +++ / Infectious index Right air sack -: count of fowl; for Number of infected fowl/Number of fowl tested: 3.5 x 10³ CFU/fowl
[10] = system: Mycoplasma hyopneumoniae (Mh) ST-11; assay: In vitro sensitivity test (liquid dilution method); format: cell-based; conditions: 37°C, 7 days
Description: as §1, §2

[11] = system: Pasteurella piscicida (P.pis) No. 2; assay: In vitro sensitivity test; format: cell-based; conditions: 25°C, 40 to 48 hours
Description: as §1, §2

[12] = system: Streptococcus sp (Str.sp) SNO6119; assay: In vitro sensitivity test; format: cell-based; conditions: 25°C, 40 to 48 hours
Description: as §1, §2

TS-resistant MG = assay: Experimental MG infection to chicken, through bait; format: in vivo; conditions: 9-days chicken; for Number of infected fowl/Number of fowl tested: 6.6 x 10³ CFU/fowl, dissection 6th day after inoculation
[13] = system: H.pp (otherwise called Actinobacillus pleuropneumoniae) strain M-1; assay: Experimental H.pp infection to pig, through injection; format: in vivo; conditions: injection to thigh muscle one time, Dose 5 mg/kg; dissection 6 days after inoculation
Description: In these experiments, the compound (I) was applied to the designated animals by (1) oral administration, (2) incorporation into baits and (3) intramuscular injection, the details of which are explained below.
(3) Preparation of the MG infected fowls was performed in the same manner as in (1) above. Infection of H.pp (otherwise called Actinobacillus pleuropneumoniae) to cause pleuropneumonia in pig was performed by inoculating 5 ml of a fresh cultured strain (i.e. M-1) of H.pp to each nasopharyngeal of some 45 days pigs, each weighing 4 to 9 kg (4 to 5 pigs/group), followed by injection of the test compounds to each thigh muscle at a designated volume one time. Pigs were dissected 6 days after the inoculation. The evaluation of the antimicrobial activity was made by observation of the pneumonia symptomes in air sacs, number of dead body and degree of nodosity in air sacks on dissection.

[14] = oral 100 mg/kg, 9-days chicken, 1.7 x 10³ CFU/fowl
[15] = oral 100 mg/kg, 9-days chicken, 2.2 x 10³ CFU/fowl
[16] = oral 100 mg/kg, 10-days chicken, 1.2 x 10³ CFU/fowl
[17] = oral 100 mg/kg, 10-days chicken, 3.0 x 10³ CFU/fowl
[18] = oral 200 mg/kg, 9-days chicken, 1.7 x 10³ CFU/fowl
[19] = oral 200 mg/kg, 9-days chicken, 2.2 x 10³ CFU/fowl
[20] = oral 200 mg/kg, 10-days chicken, 1.2 x 10³ CFU/fowl
[21] = oral 200 mg/kg, 10-days chicken, 3.0 x 10³ CFU/fowl
[22] = count of fowl, bait 880 ppm/Day, 1.8 x 10³ CFU/fowl

Compound: C[C@H]1c2cccc(O)c2C(=O)C2=C(O)[C@]3(O)C(=O)C(C(N)=O)=C(O)[C@@H](N(C)C)[C@@H]3[C@@H](O)[C@@H]21 [DOXY, doxycycline, reference compound]
- In vitro Sensitivity Test MG S6 [1]: 0.2 µg/mL
- In vitro Sensitivity Test MG T-7-T [2]: 0.2 µg/mL
- In vitro Sensitivity Test MS 1853 [3]: 0.1 µg/mL
- In vitro Sensitivity Test MS F10-2as [4]: 0.39 µg/ml
- In vitro Sensitivity Test E.coli JC-2 [5]: 0.39 µg/mL
- In vitro Sensitivity Test H.pp M-1 [6]: 0.39 µg/mL
- In vitro Sensitivity Test S.typhi 13311 [7]: 0.1 µg/mL
- In vitro Sensitivity Test S.au 209P [8]: 0.1 µg/mL
- Infectious index Left air sack + [9, 14]: 0
- Infectious index Left air sack ++ [9, 14]: 0
- Infectious index Left air sack +++ [9, 14]: 0
- Infectious index Left air sack - [9, 14]: 5
- Infectious index Right air sack + [9, 14]: 0
- Infectious index Right air sack ++ [9, 14]: 1
- Infectious index Right air sack +++ [9, 14]: 0
- Infectious index Right air sack - [9, 14]: 4
- Infectious index Left air sack + [9, 15]: 0
- Infectious index Left air sack ++ [9, 15]: 0
- Infectious index Left air sack +++ [9, 15]: 0
- Infectious index Left air sack - [9, 15]: 5
- Infectious index Right air sack + [9, 15]: 0
- Infectious index Right air sack ++ [9, 15]: 1
- Infectious index Right air sack +++ [9, 15]: 0
- Infectious index Right air sack - [9, 15]: 4
- Infectious index Left air sack + [9, 16]: 0
- Infectious index Left air sack ++ [9, 16]: 0
- Infectious index Left air sack +++ [9, 16]: 0
- Infectious index Left air sack - [9, 16]: 5
- Infectious index Right air sack + [9, 16]: 0
- Infectious index Right air sack ++ [9, 16]: 1
- Infectious index Right air sack +++ [9, 16]: 0
- Infectious index Right air sack - [9, 16]: 4
- Infectious index Left air sack + [9, 17]: 0
- Infectious index Left air sack ++ [9, 17]: 0
- Infectious index Left air sack +++ [9, 17]: 0
- Infectious index Left air sack - [9, 17]: 5
- Infectious index Right air sack + [9, 17]: 0
- Infectious index Right air sack ++ [9, 17]: 1
- Infectious index Right air sack +++ [9, 17]: 0
- Infectious index Right air sack - [9, 17]: 4
- Infectious index Left air sack + [9, 18]: 1
- Infectious index Left air sack ++ [9, 18]: 0
- Infectious index Left air sack +++ [9, 18]: 0
- Infectious index Left air sack - [9, 18]: 4
- Infectious index Right air sack + [9, 18]: 0
- Infectious index Right air sack ++ [9, 18]: 1
- Infectious index Right air sack +++ [9, 18]: 0
- Infectious index Right air sack - [9, 18]: 4
- Infectious index Left air sack + [9, 19]: 1
- Infectious index Left air sack ++ [9, 19]: 0
- Infectious index Left air sack +++ [9, 19]: 0
- Infectious index Left air sack - [9, 19]: 4
- Infectious index Right air sack + [9, 19]: 0
- Infectious index Right air sack ++ [9, 19]: 1
- Infectious index Right air sack +++ [9, 19]: 0
- Infectious index Right air sack - [9, 19]: 4
- Infectious index Left air sack + [9, 20]: 1
- Infectious index Left air sack ++ [9, 20]: 0
- Infectious index Left air sack +++ [9, 20]: 0
- Infectious index Left air sack - [9, 20]: 4
- Infectious index Right air sack + [9, 20]: 0
- Infectious index Right air sack ++ [9, 20]: 1
- Infectious index Right air sack +++ [9, 20]: 0
- Infectious index Right air sack - [9, 20]: 4
- Infectious index Left air sack + [9, 21]: 1
- Infectious index Left air sack ++ [9, 21]: 0
- Infectious index Left air sack +++ [9, 21]: 0
- Infectious index Left air sack - [9, 21]: 4
- Infectious index Right air sack + [9, 21]: 0
- Infectious index Right air sack ++ [9, 21]: 1
- Infectious index Right air sack +++ [9, 21]: 0
- Infectious index Right air sack - [9, 21]: 4
- Number of fowl having air sack lesions [9, 14]: 1
- Number of fowl having air sack lesions [9, 15]: 1
- Number of fowl having air sack lesions [9, 16]: 1
- Number of fowl having air sack lesions [9, 17]: 1
- Number of fowl having air sack lesions [9, 18]: 1
- Number of fowl having air sack lesions [9, 19]: 1
- Number of fowl having air sack lesions [9, 20]: 1
- Number of fowl having air sack lesions [9, 21]: 5

Compound: CCNCC12CCCC1CN(c1c(F)cc3c(=O)c(C(=O)O)cn(CC)c3c1F)C2.Cl (stereo not shown) [I-23]
- In vitro Sensitivity Test MG S6 [1]: 0.0125 µg/mL
- In vitro Sensitivity Test Mh ST-11 [10]: 0.78 µg/mL
- In vitro Sensitivity Test E.coli JC-2 [5]: 0.78 µg/mL
- In vitro Sensitivity Test H.pp M-1 [6]: 0.78 µg/mL
- In vitro Sensitivity Test S.typhi 13311 [7]: 1.56 µg/mL
- In vitro Sensitivity Test S.au 209P [8]: 0.1 µg/mL
- In vitro Sensitivity Test P.pis No. 2 [11]: 0.78 µg/mL
- In vitro Sensitivity Test Str.sp SNO6119 [12]: 0.39 µg/mL
- Number of infected fowl/Number of fowl tested ([9]; oral 1.56 mg/kg, 9-days chicken): 5/5
- Number of infected fowl/Number of fowl tested ([9]; oral 3.13 mg/kg, 9-days chicken): 5/5
- Number of infected fowl/Number of fowl tested ([9]; oral 6.25 mg/kg, 9-days chicken): 0/5
- Number of infected fowl/Number of fowl tested (TS-resistant MG; bait 31.3 ppm/Day): 5/7
- Number of infected fowl/Number of fowl tested (TS-resistant MG; bait 62.5 ppm/Day): 0/7
- Number of infected fowl/Number of fowl tested (TS-resistant MG; bait 125 ppm/Day): 0/7
- Number of pig having nodi/Number of pig tested [13]: 2/4

Compound: CN(C)[C@@H]1C(O)=C(C(N)=O)C(=O)[C@@]2(O)C(O)=C3C(=O)c4c(O)ccc(Cl)c4[C@@](C)(O)[C@H]3C[C@@H]12 [CTC, chlorotetracycline hydrochloride, reference compound]
- In vitro Sensitivity Test MG S6 [1]: 12.5 µg/mL
- In vitro Sensitivity Test MG T-7-T [2]: 6.25 µg/mL
- In vitro Sensitivity Test Mh ST-11 [10]: 1.56 µg/mL
- In vitro Sensitivity Test MS 1853 [3]: 0.05 µg/mL
- In vitro Sensitivity Test MS F10-2as [4]: 0.39 µg/ml
- In vitro Sensitivity Test E.coli JC-2 [5]: 0.39 µg/mL
- In vitro Sensitivity Test S.typhi 13311 [7]: 0.1 µg/mL
- In vitro Sensitivity Test S.au 209P [8]: 0.1 µg/mL
- Number of fowl having air sack lesions (TS-resistant MG; bait 880 ppm/Day, 1.8 x 10³ CFU/fowl): 4
- Infectious index Left air sack + (TS-resistant MG; [22]): 0
- Infectious index Left air sack ++ (TS-resistant MG; [22]): 0
- Infectious index Left air sack +++ (TS-resistant MG; [22]): 0
- Infectious index Left air sack - (TS-resistant MG; [22]): 5
- Infectious index Right air sack + (TS-resistant MG; [22]): 3
- Infectious index Right air sack ++ (TS-resistant MG; [22]): 1
- Infectious index Right air sack +++ (TS-resistant MG; [22]): 0
- Infectious index Right air sack - (TS-resistant MG; [22]): 1
